Test results taken from article PMC8842277, “Highly Antiproliferative Latonduine and Indolo[2,3-c]quinoline Derivatives: Complex Formation with Copper(II) Markedly Changes the Kinase Inhibitory Profile” (Journal of Medicinal Chemistry, 2022).

Columns and labels:
Experiment in all cases: Kinase panel screen
Assay type in all cases: biochemical
Conditions in all cases: 10 µM compound
PLK1 = PLK1 (Homo sapiens, UniProt P53350)
Text: (§1) Figure 7 (see also Table S4) summarizes the results of this assay as a histogram plotting the percentage of the remaining enzyme activity (x-axis) as a function of added lead compound (HL^8: blue trace, 8: red trace) for each of the 50 enzymes assayed (y-axis). […] Thus, the coordination to copper(II) completely changes the kinase inhibition profile of HL^8.
(§2) Figure 7 Screening of HL^8 and 8 against 50 enzymes: histogram with % remaining activity on the x-axis plotted against the compound identifier (blue trace: HL^8 and red trace: 8) and enzyme identifier on the […]. The screen was carried out at a compound concentration of 10 μM, an enzyme concentration of 50 nM, and an ATP concentration of 100 μM.
(§3) All kinase assays were carried out using Multidrop 384’s at room temperature in a total assay volume of 25.5 μL. To plates containing 0.5 μL of HL^8 and 8, DMSO control or acid blank […], 15 μL of an enzyme mix containing enzyme […], and excess peptide/protein substrate in buffer was added. Compounds were pre-incubated in the presence of the enzyme and peptide/protein substrate for 5 min before initiation of the reaction by addition of 10 μL of ATP (final concentration selected for each kinase at 5, 20, or 50 μM). Assays were carried out for 30 min at room temperature before termination by the addition of 5 μL of orthophosphoric acid. The assay plates were then harvested onto P81 Unifilter Plates by a PerkinElmer Harvester and air dried. The dry Unifilter plates were then sealed on the addition of MicroScint O and were counted in PerkinElmer Topcount scintillation counters.

TTK = TTK (Homo sapiens, UniProt P33981)
Text: as §1, §2, §3

Aurora B = Aurora B (Homo sapiens, UniProt Q96GD4)
Text: as §1, §2, §3

JNK1 = JNK1 (Homo sapiens, UniProt P45983)
Text: as §1, §2, §3

EPH-A2 = EPH-A2 (Homo sapiens, UniProt P29317)
EPH-A2, sequence (P29317 24-976): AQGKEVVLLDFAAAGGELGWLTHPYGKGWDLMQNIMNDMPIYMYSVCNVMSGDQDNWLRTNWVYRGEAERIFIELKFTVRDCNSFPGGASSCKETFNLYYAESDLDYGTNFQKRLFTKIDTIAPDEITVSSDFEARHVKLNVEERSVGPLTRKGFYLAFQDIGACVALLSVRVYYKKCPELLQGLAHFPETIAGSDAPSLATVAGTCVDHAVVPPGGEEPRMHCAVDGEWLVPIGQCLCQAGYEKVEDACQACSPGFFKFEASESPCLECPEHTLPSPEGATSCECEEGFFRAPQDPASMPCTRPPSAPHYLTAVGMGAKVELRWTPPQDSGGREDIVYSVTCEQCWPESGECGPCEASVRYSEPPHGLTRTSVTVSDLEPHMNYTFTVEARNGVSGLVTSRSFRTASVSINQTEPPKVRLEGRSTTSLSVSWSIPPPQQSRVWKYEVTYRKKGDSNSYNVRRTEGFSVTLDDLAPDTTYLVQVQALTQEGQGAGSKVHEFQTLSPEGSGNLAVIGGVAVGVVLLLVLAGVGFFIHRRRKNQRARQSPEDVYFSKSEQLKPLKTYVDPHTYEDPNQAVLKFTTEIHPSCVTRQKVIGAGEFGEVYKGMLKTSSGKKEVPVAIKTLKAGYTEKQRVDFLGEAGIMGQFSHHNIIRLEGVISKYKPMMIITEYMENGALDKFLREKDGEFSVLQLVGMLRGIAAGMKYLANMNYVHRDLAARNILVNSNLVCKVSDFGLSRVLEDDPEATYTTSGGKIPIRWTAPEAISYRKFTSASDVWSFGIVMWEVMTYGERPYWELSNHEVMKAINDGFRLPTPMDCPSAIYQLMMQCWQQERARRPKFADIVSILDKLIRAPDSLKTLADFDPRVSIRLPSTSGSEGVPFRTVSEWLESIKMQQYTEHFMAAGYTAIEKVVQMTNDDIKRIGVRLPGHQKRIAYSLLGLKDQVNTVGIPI
Text: as §1, §2, §3

PKCa = PKCa (Homo sapiens, UniProt P17252)
Text: as §1, §2, §3

Lck = Lck (Homo sapiens, UniProt P06239)
Text: as §1, §2, §3

CK2 = CK2 (Homo sapiens, UniProt P68400)
Text: as §1, §2, §3

ROCK 2 = ROCK 2 (Homo sapiens, UniProt O75116)
Text: as §1, §2, §3

MLK3 = MLK3 (Homo sapiens, UniProt Q16584)
Text: as §1, §2, §3

Src = Src (Homo sapiens, UniProt P12931)
Text: as §1, §2, §3

S6K1 = S6K1 (Homo sapiens, UniProt P23443)
Text: as §1, §2, §3

VEG-FR = VEG-FR (Homo sapiens, UniProt P17948)
VEG-FR, sequence (P17948 27-1338): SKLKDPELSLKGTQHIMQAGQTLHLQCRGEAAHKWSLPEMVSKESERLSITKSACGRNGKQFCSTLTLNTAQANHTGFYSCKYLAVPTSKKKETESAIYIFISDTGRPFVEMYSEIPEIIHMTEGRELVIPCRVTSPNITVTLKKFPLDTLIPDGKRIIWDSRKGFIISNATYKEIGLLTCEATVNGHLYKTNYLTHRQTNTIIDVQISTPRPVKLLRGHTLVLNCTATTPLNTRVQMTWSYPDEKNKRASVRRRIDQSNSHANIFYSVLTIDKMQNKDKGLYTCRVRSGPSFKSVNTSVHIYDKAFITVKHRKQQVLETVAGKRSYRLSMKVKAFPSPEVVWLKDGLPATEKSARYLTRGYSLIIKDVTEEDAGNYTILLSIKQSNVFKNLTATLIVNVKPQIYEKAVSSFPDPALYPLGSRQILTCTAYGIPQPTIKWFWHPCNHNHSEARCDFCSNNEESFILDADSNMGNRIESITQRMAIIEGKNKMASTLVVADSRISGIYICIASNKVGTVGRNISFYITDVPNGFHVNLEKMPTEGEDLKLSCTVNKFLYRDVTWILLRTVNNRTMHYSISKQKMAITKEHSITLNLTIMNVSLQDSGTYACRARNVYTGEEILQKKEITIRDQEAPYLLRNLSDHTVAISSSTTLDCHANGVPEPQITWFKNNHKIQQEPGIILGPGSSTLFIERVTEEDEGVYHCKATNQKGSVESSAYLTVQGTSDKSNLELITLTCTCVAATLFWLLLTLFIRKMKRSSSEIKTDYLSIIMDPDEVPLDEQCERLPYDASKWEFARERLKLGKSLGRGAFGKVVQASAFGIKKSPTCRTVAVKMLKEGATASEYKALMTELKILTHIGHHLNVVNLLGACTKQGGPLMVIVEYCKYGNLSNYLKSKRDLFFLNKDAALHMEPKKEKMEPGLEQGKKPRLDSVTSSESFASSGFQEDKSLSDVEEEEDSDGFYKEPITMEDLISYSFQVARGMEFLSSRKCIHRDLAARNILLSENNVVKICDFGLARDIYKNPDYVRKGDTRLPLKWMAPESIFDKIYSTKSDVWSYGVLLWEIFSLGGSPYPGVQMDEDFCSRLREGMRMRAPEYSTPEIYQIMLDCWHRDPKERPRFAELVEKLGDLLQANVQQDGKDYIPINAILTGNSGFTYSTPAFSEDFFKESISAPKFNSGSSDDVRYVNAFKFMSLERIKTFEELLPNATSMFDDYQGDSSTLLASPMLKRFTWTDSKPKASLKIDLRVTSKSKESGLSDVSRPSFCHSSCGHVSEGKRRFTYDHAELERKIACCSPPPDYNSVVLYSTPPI
Text: as §1, §2, §3

IRAK4 = IRAK4 (Homo sapiens, UniProt Q9NWZ3)
Text: as §1, §2, §3

PKBa = PKBa (Homo sapiens, UniProt P31749)
PKBa, sequence (P31749 whole entry): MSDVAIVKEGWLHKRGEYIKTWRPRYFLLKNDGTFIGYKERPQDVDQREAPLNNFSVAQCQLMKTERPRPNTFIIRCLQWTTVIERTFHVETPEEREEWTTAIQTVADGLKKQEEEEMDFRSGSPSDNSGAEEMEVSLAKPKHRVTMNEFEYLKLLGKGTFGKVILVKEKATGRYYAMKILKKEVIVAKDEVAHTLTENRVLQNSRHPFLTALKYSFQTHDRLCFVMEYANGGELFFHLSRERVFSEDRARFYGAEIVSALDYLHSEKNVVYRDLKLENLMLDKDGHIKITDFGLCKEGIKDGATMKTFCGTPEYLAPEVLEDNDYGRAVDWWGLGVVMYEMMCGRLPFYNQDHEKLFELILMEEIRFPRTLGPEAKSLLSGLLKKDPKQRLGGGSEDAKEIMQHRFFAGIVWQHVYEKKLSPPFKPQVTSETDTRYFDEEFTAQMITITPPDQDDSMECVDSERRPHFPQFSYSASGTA
Text: as §1, §2, §3

NEK6 = NEK6 (Homo sapiens, UniProt Q9HC98)
NEK6, sequence (Q9HC98 whole entry): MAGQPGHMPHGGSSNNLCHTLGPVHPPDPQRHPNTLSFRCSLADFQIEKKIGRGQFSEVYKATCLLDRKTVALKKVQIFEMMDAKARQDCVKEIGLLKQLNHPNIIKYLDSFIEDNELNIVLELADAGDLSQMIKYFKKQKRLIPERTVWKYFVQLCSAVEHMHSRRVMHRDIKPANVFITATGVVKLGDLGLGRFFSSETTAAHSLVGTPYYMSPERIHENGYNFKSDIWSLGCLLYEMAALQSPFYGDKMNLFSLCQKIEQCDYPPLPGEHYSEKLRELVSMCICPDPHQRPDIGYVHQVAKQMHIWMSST
Text: as §1, §2, §3

TBK1 = TBK1 (Homo sapiens, UniProt Q9UHD2)
Text: as §1, §2, §3

SmMLCK = SmMLCK (Homo sapiens, UniProt Q15746)
Text: as §1, §2, §3

DYRK1A = DYRK1A (Homo sapiens, UniProt Q13627)
Text: as §1, §2, §3

PDK1 = PDK1 (Homo sapiens, UniProt O15530)
Text: as §1, §2, §3

CK1δ = CK1δ (Homo sapiens, UniProt P48730)
Text: as §1, §2, §3

SYK = SYK (Homo sapiens, UniProt P43405)
Text: as §1, §2, §3

PRK2 = PRK2 (Homo sapiens, UniProt Q16513)
Text: as §1, §2, §3

TrkA = TrkA (Homo sapiens, UniProt P04629)
Text: as §1, §2, §3

EF2K = EF2K (Homo sapiens, UniProt O00418)
Text: as §1, §2, §3

PKD1 = PKD1 (Homo sapiens, UniProt Q15139)
Text: as §1, §2, §3

TAK1 = TAK1 (Homo sapiens, UniProt O43318)
TAK1, sequence (O43318 1-303 limits assumed): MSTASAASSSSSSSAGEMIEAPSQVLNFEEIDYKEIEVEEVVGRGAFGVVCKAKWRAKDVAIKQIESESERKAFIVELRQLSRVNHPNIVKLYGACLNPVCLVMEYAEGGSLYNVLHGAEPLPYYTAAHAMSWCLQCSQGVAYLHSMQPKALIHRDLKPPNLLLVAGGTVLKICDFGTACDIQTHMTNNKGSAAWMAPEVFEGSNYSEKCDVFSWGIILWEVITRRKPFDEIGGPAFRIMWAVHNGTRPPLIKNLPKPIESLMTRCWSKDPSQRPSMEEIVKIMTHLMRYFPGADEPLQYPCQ
Text: as §1, §2, §3

HER4 = HER4 (Homo sapiens, UniProt Q15303)
Text: as §1, §2, §3

MARK3 = MARK3 (Homo sapiens, UniProt P27448)
Text: as §1, §2, §3

BTK = BTK (Homo sapiens, UniProt Q06187)
Text: as §1, §2, §3

SRPK1 = SRPK1 (Homo sapiens, UniProt Q96SB4)
Text: as §1, §2, §3

p38a MAPK = p38a MAPK (Homo sapiens, UniProt Q16539)
Text: as §1, §2, §3

MKK1 = MKK1 (Homo sapiens, UniProt Q02750)
Text: as §1, §2, §3

JAK3 = JAK3 (Homo sapiens, UniProt P52333)
JAK3, sequence (P52333 whole entry): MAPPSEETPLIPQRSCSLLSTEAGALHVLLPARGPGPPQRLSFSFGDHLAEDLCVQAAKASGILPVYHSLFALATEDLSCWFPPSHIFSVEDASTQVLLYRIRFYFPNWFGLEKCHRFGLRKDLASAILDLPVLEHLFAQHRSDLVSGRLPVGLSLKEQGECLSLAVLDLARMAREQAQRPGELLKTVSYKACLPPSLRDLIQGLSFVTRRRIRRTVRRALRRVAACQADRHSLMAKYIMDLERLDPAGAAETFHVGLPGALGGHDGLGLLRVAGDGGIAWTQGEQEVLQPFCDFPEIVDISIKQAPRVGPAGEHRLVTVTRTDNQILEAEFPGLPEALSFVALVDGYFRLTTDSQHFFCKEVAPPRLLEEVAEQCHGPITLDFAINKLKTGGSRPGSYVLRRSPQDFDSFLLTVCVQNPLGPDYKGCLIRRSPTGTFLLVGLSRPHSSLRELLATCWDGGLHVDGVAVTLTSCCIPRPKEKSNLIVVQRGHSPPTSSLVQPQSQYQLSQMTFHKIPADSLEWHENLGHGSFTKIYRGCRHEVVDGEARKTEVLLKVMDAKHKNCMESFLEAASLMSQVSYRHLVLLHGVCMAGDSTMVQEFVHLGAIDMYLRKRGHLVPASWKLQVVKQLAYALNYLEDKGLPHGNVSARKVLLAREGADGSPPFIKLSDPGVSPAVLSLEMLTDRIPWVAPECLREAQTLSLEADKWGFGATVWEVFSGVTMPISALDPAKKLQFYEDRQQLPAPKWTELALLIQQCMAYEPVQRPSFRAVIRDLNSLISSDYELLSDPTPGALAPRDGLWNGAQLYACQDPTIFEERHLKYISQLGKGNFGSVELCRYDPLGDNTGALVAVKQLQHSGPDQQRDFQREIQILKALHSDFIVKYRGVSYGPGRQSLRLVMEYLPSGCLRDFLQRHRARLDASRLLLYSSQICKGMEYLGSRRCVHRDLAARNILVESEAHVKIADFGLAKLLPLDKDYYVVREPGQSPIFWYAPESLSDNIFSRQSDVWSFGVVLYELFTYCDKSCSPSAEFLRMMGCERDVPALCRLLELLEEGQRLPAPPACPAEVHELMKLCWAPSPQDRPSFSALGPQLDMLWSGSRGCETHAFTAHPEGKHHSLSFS
Text: as §1, §2, §3

RIPK2 = RIPK2 (Homo sapiens, UniProt O43353)
Text: as §1, §2, §3

CAMKKb = CAMKKb (Homo sapiens, UniProt Q96RR4)
CAMKKb, sequence (Q96RR4 whole entry): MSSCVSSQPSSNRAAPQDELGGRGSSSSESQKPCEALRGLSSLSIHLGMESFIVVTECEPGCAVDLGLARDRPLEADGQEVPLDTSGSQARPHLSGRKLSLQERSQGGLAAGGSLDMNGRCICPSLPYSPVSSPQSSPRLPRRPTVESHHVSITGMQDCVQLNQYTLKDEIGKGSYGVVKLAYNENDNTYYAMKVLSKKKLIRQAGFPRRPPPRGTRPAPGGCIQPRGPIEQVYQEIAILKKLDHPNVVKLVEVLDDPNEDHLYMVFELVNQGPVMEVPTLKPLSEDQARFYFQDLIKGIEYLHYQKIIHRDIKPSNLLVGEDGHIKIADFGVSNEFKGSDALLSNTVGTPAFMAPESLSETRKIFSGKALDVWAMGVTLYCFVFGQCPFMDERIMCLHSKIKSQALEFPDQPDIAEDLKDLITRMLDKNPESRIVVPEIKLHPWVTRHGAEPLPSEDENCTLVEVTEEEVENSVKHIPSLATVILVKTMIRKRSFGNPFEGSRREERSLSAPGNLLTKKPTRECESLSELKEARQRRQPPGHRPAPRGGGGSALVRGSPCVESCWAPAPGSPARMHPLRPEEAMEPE
Text: as §1, §2, §3

CC(=NNc1nc2ccccc2c2c1[nH]c1ccc(Br)cc12)c1ccc(CN2CCOCC2)cn1.[Cl][Cu][Cl] [compound 8, CuCl2(HL^8)·H2O]
% remaining activity (PLK1): 90% | % remaining activity (TTK): 64% | % remaining activity (Aurora B): 78% | % remaining activity (JNK1): 134% | % remaining activity (EPH-A2): 132% | % remaining activity (PKCa): 80% | % remaining activity (Lck): 54% | % remaining activity (CK2): 79% | % remaining activity (ROCK 2): 98% | % remaining activity (MLK3): 41% | % remaining activity (Src): 125% | % remaining activity (S6K1): 109% | % remaining activity (VEG-FR): 77% | % remaining activity (IRAK4): 105% | % remaining activity (PKBa): 82% | % remaining activity (NEK6): 43% | % remaining activity (TBK1): 76% | % remaining activity (SmMLCK): 87% | % remaining activity (DYRK1A): 77% | % remaining activity (PDK1): 121% | % remaining activity (CK1δ): 98% | % remaining activity (SYK): 39% | % remaining activity (PRK2): 38% | % remaining activity (TrkA): 82% | % remaining activity (EF2K): 108% | % remaining activity (PKD1): 65% | % remaining activity (TAK1): 120% | % remaining activity (HER4): 71% | % remaining activity (MARK3): 112% | % remaining activity (BTK): 61% | % remaining activity (SRPK1): 40% | % remaining activity (p38a MAPK): 123% | % remaining activity (MKK1): 94% | % remaining activity (JAK3): 120% | % remaining activity (RIPK2): 95% | % remaining activity (CAMKKb): 98%
